According to ChEMBL document CHEMBL5325400 (Eur J Med Chem, 2023):
pIC50, pKd: −log10 of the molar value. The source made the active and inactive calls. The rule behind the calls is not given here.

Tests used:
A549 [1] = assay: Antimigratory activity against human A549 cells assessed as inhibition of cell migration at 40 nM and incubated for 12 hrs by scratch wound healing assay (reference value: 29.5 +/- 1.34%); format: functional; parameters: scale not given: the % may be the effect or the level left
A549 [2] = assay: Induction of cell cycle arrest in human A549 cells assessed as accumulation at G2 phase at 10 nM incubated for 24 hrs by PI staining based flow cytometry (Rvb= 12.49%); format: functional
A549 [3] = assay: Antitumor activity against human A549 cells xenografted in BALB/c mouse assessed as tumor volume at 5 mg/kg, ip administered every other day for 25 days; format: functional; conditions: time 25 day
A549 [4] = assay: Induction of apoptosis in human A549 cells assessed as early apoptotic cells at 20 nM incubated for 24 hrs by annexin V-FITC/propidium iodide staining based flow cytometry analysis (reference value: 0.84%); format: functional
A549 [5] = assay: Antitumor activity against human A549 cells xenografted in BALB/c mouse assessed as upregulation of cleaved PARP expression in tumor at 5 mg/kg, ip administered every other day for 25 days by Western blotting analysis; format: functional, organism-based; conditions: time 25.0 day
A549 [6] = assay: Residual cell migration in human A549 cells at 10 nM incubated for 12 hrs by crystal violet staining based transwell assay; conditions: A549, 12 h
A549 [7] = assay: Antimigratory activity against human A549 cells assessed as inhibition of cell migration at 10 nM and incubated for 12 hrs by scratch wound healing assay (reference value: 29.5 +/- 1.34%); format: functional; parameters: scale not given: the % may be the effect or the level left
Tubulin = assay: Binding affinity to tubulin (unknown origin) assessed as dissociation constant by SPR analysis; format: protein-complex assay, Homo sapiens
A549 [8] = assay: Antimigratory activity against human A549 cells assessed as inhibition of cell migration at 5 nM and incubated for 12 hrs by scratch wound healing assay (reference value: 29.5 +/- 1.34%); format: functional; parameters: scale not given: the % may be the effect or the level left
MDA-MB-231 = assay: Antiproliferative activity against human MDA-MB-231 cells assessed as inhibition of cell growth measured after 48 hrs by MTT assay; format: functional, cell-based; conditions: MDA-MB-231, 48 h
[9] = Cmax in Sprague-Dawley rat at 1 mg/kg, iv by LC-MS analysis; format: ADME, organism-based; parameters: dose 1 mg/kg, route iv; conditions: in vivo
A549 [10] = assay: Inhibition of cell migration in human A549 cells assessed as total number of cells migrated at 40 nM incubated for 12 hrs by crystal violet staining based transwell assay (reference value: 724 +/- 16); format: functional
A549 [11] = assay: Antitumor activity against human A549 cells xenografted in BALB/c mouse assessed as reduction in AKT phosphorylation at S473 residue in tumor at 5 to 10 mg/kg, ip administered every other day for 25 days by Western blotting analysis; format: functional, organism-based; conditions: dose 5-10 mg/kg, time 25.0 day
A549 [12] = assay: Induction of cell cycle arrest in human A549 cells assessed as accumulation at G2 phase at 40 nM incubated for 24 hrs by PI staining based flow cytometry (Rvb= 12.49%); format: functional
A549 [13] = assay: Residual cell migration in human A549 cells at 20 nM incubated for 12 hrs by crystal violet staining based transwell assay; conditions: A549, 12 h
A549 [14] = assay: Induction of cell cycle arrest in human A549 cells assessed as accumulation at G1 phase at 40 nM incubated for 24 hrs by PI staining based flow cytometry (Rvb= 65.68%); format: functional
A549 [15] = assay: Inhibition of cell migration in human A549 cells assessed as total number of cells migrated at 20 nM incubated for 12 hrs by crystal violet staining based transwell assay (reference value: 724 +/- 16); format: functional

With `COc1cccc(Nc2cc(Nc3cccc(NC(=O)C4CC4)c3)ncn2)c1` the Activity (A549 [1]) was 6.1%, the Activity (A549 [2]) was 23.37% and the Activity (A549 [3]) was 42.51%. The Activity (A549 [4]) was 1.69%, the Activity (A549 [5]) was “Active” and the level, % of control at 0.01 µM (A549 [6]) was 70.6%. For the same compound, the Activity (A549 [7]) was 15.8%, the pKd (Tubulin) was 4.36 and the Activity (A549 [8]) was 23.2%. It also gave a pIC50 (MDA-MB-231) of 8.36, a Cmax [9] of 87.86 ng/mL and an Activity (A549 [10]) of 157. For the same compound, the Activity (A549 [11]) was “inactive”, the Activity (A549 [12]) was 53.15% and the level, % of control at 0.02 µM (A549 [13]) was 56.3%. The Activity (A549 [14]) was 21.8% and the Activity (A549 [15]) was 397.
